Assay results taken from ChEMBL document CHEMBL1131904, “Peptidic immunosuppressants from the fungus Trichoderma polysporum” (Bioorg Med Chem Lett, 1999).
Numbered stars: 1 amine (or outer) side, 2 acyl side, 3 side chain; on linkers, the order of the positions; unused ones are H or OH. Square brackets hold non-standard residues; d marks the D form. Peptide text beside a SMILES is read from it. * marks the point of attachment. ξ: configuration not given here. X1 = CCC(=O)C[C@@H](O)C[C@@H](C)C[C@H](N[*:1])C(=O)[*:2]; Alaψ(CH2NMeCH2CH2OH) = C[C@@H](CN(C)CCO)N*; Decanoyl(2R-Me) = CCCCCCCC[C@@H](C)C(=O)*; X2 = CCCCCCC[C@H](O)[C@H](C)C(=O)*; Aib = CC(C)(N)C(=O)O; ξA = CC(N)C(=O)O

What was measured:
Mus musculus [1] = species: Mus musculus; test: Inhibitory activity against the proliferation of lymphocytes in mouse allogenic mixed lymphocyte reaction (MLR).; type: functional, organism-based
Mus musculus [2] = species: Mus musculus; test: Inhibitory activity against the production of interleukin 4 (IL-4); type: functional, organism-based

Structure (SMILES)	IC50 (Mus musculus [2]) [nM]	IC50 (Mus musculus [1]) [nM]
CCCCCCCC[C@@H](C)C(=O)N1CCC[C@H]1C(=O)N[C@@H](C[C@H](C)C[C@H](O)CC(=O)CC)C(=O)N[C@@H](C)C(=O)NC(C)(C)C(=O)NC(C)(C)C(=O)N[C@H](C(=O)N[C@@H](C)C(=O)NC(C)(C)C(=O)NC(C)(C)C(=O)N[C@@H](C)CN(C)CCO)[C@@H](C)CC ({Decanoyl(2R-Me)}-P[X1]A[Aib][Aib]IA[Aib][Aib]-{Alaψ(CH2NMeCH2CH2OH)})	> 1000	5.2
CCCCCCCC[C@@H](C)C(=O)N1CCC[C@H]1C(=O)N[C@@H](C[C@H](C)C[C@H](O)CC(=O)CC)C(=O)N[C@@H](C)C(=O)NC(C)(C)C(=O)NC(C)(C)C(=O)N[C@H](C(=O)N[C@@H](C)C(=O)NC(C)(C)C(=O)NC(C)C(=O)N[C@@H](C)CN(C)CCO)[C@@H](C)CC (stereo partly drawn) ({Decanoyl(2R-Me)}-P[X1]A[Aib][Aib]IA[Aib][ξA]-{Alaψ(CH2NMeCH2CH2OH)})	> 1000	20.5
CCCCCCCC[C@@H](C)C(=O)N1CCC[C@H]1C(=O)N[C@@H](C[C@H](C)C[C@H](O)CC(=O)CC)C(=O)N[C@@H](C)C(=O)NC(C)(C)C(=O)NC(C)(C)C(=O)N[C@H](C(=O)N[C@@H](C)C(=O)NC(C)(C)C(=O)NC(C)(C)C(=O)N[C@@H](C)CN(C)CCO)C(C)C ({Decanoyl(2R-Me)}-P[X1]A[Aib][Aib]VA[Aib][Aib]-{Alaψ(CH2NMeCH2CH2OH)})	> 1000	10.7

More lines, main results first:

IC50 (Mus musculus [2]) [nM]	Structure (SMILES)	IC50 (Mus musculus [1]) [nM]
> 1000	CCCCCCC[C@H](O)[C@H](C)C(=O)N1CCC[C@H]1C(=O)N[C@@H](C[C@H](C)C[C@H](O)CC(=O)CC)C(=O)N[C@@H](C)C(=O)NC(C)(C)C(=O)NC(C)(C)C(=O)N[C@H](C(=O)N[C@@H](C)C(=O)NC(C)(C)C(=O)NC(C)(C)C(=O)N[C@@H](C)CN(C)CCO)[C@@H](C)CC (X2-P[X1]A[Aib][Aib]IA[Aib][Aib]-{Alaψ(CH2NMeCH2CH2OH)})	294
> 1000	CCCCCCCC[C@@H](C)C(=O)N1CCC[C@H]1C(=O)N[C@@H](C[C@H](C)C[C@H](O)CC(=O)CC)C(=O)N[C@@H](C)C(=O)NC(C)(C)C(=O)NC(C)(C)C(=O)N[C@H](C(=O)N[C@@H](C)C(=O)NC(C)(C)C(=O)NC(C)C(=O)N[C@@H](C)CN(C)CCO)C(C)C (stereo partly drawn) ({Decanoyl(2R-Me)}-P[X1]A[Aib][Aib]VA[Aib][ξA]-{Alaψ(CH2NMeCH2CH2OH)})	60.4
